Source: patent US20250049747A1, “USE OF HYPERPOLARIZING AGENTS ALONE AND IN COMBINATION WITH OTHER THERAPEUTIC AGENTS FOR TREATING CANCERS INCLUDING GLIOBLASTOMA” (Trustees of Tufts College, priority 2021, published 2025)
Several values for one entry are separate records, joined by “and”; a condition that tells them apart may be missing. Equal entries are not always repeated.

What was measured:
NG108-15 cells = test: Automated patch-clamp electrophysiology, resting membrane potential; assay type: cell-based, mouse/rat; conditions: NG108-15, immediately after application
Procedure: Electrophysiology. SyncroPatch 384PE platform (Nanion Technologies®) was used to perform the automated patch-clamp experiments. This system provides giga-ohm resistance seals during simultaneous recording in the 384-well plate format. Cells were harvested 48-72 h after seeding 1-2×10^6 cells in T175 culture flasks (Falcon), then cells were rinsed with PBS (5 mL) and treated with 3 mL Accutase ([…] technologies) for 5 min at 37° C., re-suspended in 10 mL of serum-free media and pelleted at 1000 rpm for 3 min at RT. […] The cells were kept until the moment of the experiment in a temperature controlled dedicated reservoir at 10° C. and shaken at 200 rpm as described. The experiments were performed within one hour after the harvesting process. The assays were carried in single-hole chips with resistances between 4-5 MΩ after priming the chip with the following solutions (in mM), physiological extracellular solution (pECS) 10 HEPES, 140 NaCl, 5 Glucose, 4 KCl, 2 CaCl2), 1 MgCl2, 295-305 mOsm pH 7.4 (NaOH). Internal recording solution (in mM) 20 EGTA, 50 KCl, 10 NaCl, 60 KF, 10 HEPES at pH 7.2, and 285 mOsm. 15 μL of the cell suspension (50% v/v pECS/Medium no serum) was added to each well to a final density of 50-80K cells/mL. Cell capture was promoted by holding a negative pressure of −100 mbar for 20 s. After successive hyperpolarization steps from −30 mV to −100 mV enhanced the capture the seal followed by the transient addition of a high Ca2+ extracellular solution (80 mM NaCl, 3 mM KCl, 35 mM CaCl2), 10 mM MgCl2, 10 mM HEPES at pH 7.4 and 298 mOsm. High Ca2+ solution is washed out by successive external exchanges replacing half of the volume of the well each time with the external recording solution. All recording solutions were prepared with ultrapure MilliQ water (18 MD-cm). After the formation of the Giga-seal, a 250 mbar pressure was applied to break the membrane patch. Once in whole-cell configuration, different voltage protocols were applied to dissect different conductances in NG108-15 cells. Signals were recorded in the current-clamp mode “I=0” (passive conditions) where no current was injected, to monitor the membrane potential. The membrane potentials were recorded for seven sweeps of 1 sec, with an inter-sweep time of 10 s. The average membrane potentials of the 7 sweeps were reported.
Electrophysiology of NG108-15 Cells Show Changes in Resting Membrane Potential Induced by Treatment. […] Untreated cells were patched, baseline measurements were taken and then the drugs were added and the changes in the cell Vmem were recorded.

[1] = breast cancer xenograft model in immunodeficient mice; cited from earlier work
[2] = human, in vivo; cited from earlier work
human neuronal cells = test: Live/Dead assay on human neuronal cells; assay type: cell-based; conditions: human neurons, 3 day treatment
Procedure: Human neuronal cells were differentiated from human induced neural stem cells (hiNSCs) (passage 7-10), a generous gift from David Kaplan, as described previously. Briefly, hiNSCs were grown on mouse embryonic fibroblast (MEF) feeder cells until ready to differentiate into neurons. Cells were then seeded on Poly-D-Lysine (A3890401, ThermoFisher) and laminin (L2020, Sigma) coated 96 well plates at a density of 128,000 cells/mL. Cells were differentiated in Neurobasal (12348017, ThermoFisher) media supplemented with 2% B27 (17504044, Gibco), 1% Glutamax, and 1% antibiotic-antimycotic for 7 days with media changes every 2 days. At the end of the 7 days the treatments were added in the differentiation media for 3 days.
Dye Staining Protocols. For the Live/Dead assay, 1 μM Calcein Green AM and 0.5 μM ethidium homodimer-1 (L3224, ThermoFisher) were added to PBS along with 10 μg/mL of Hoechst to make the staining solution. Half the media was removed from the human neuronal cells that had been incubated with treatments for 3 days and replaced with staining solution. […] Cells were then incubated for 15 min at 37° C. and imaged. For resting membrane potential staining, DiBAC4(3) was used. U87 cells were seeded at 10,000 cells per mL on Matrigel coated plates as described above. […] Images were then analyzed using a CellProfiler pipeline. […]

[3] = Reported clinical pharmacokinetics and blood-brain barrier penetrance (literature); conditions: human, in vivo; pantoprazole 240 mg/day, if proportional to the 30 mg/day dose

| Cmax [3] | Compound | change in resting membrane potential compared to control (NG108-15 cells) | toxicity on the heart or on normal breast epithelial cells [1] | blood brain barrier penetrance [2] | toxicity by Live/Dead stain compared to control (human neuronal cells) |
| --- | --- | --- | --- | --- | --- |
| – | O=C(Nc1cc(C(F)(F)F)ccc1O)Nc1cc(C(F)(F)F)ccc1O [NS1643] | significantly hyperpolarized | did not show any overt toxicity | – | – |
| 42000 ng/mL and ~110 µM | COc1ccnc(C[S+]([O-])c2nc3ccc(OC(F)F)cc3[nH]2)c1OC (stereo not drawn) [Pantoprazole, pantoprazole] | did not have an immediate effect | – | 2% | slight increase in toxicity that was significant compared to control |
